Measured values as given in US20220348590A1, “CYCLOOXYGENASE-2 INHIBITORS AND USES THEREOF” (The Board Institute, Inc., priority 2019, published 2022).
≈ marks a conversion by molar mass, not a printed value. Read-outs that look alike come from different tables or passages of the source.

What was measured:
[1] = rat plasma protein binding (PPB) assay; assay type: in vitro ADME; conditions: average, read-out: Rat Plasma Protein Binding % Bound Avg (converted)
Experimental: (§1) We have adapted a previously reported cyclooxygenase enzymatic assay utilizing LCMS quantification of PGE2 as the product of COX-1 and COX2 catalyzed conversion of arachidonic acid to evaluate the binding properties of newly synthesized ligands [Cao, 2011]. These optimized and miniaturized (384-well plates) LCMS-based COX-1 and COX2 enzymatic assays enabled us to quickly evaluate newly synthesized ligands for COX2 binding affinity and selectivity vs COX-1. Using a shorter ligand-enzyme incubation time in the LCMS assay (2 minutes vs 10 minutes) also permitted us to prioritize ligands with faster binding kinetics. Considering the relatively slow on-rate kinetics of known coxibs, due to their 3-step binding mechanism [Marnett, 2009], we believe that optimizing this critical parameter will be key to the successful development of a COX2 PET tracer. Using these enzymatic assays, we have evaluated>200 newly synthesized ligands against COX2 and >20 ligands against COX-1. Another critical property necessary for a good PET radiotracer is to have low non-specific binding (NSB) to increase the free fraction and maximize the signal to noise ratio. This property can be evaluated using in-vitro protein binding assays, and we have now evaluated>50 newly synthesized ligands in mouse, rat and human plasma protein binding (PPB) assays as well as >15 ligands in a mouse brain protein binding (BPB) assay.

[2] = human plasma protein binding (PPB) assay; assay type: in vitro ADME; conditions: average, read-out: Human Plasma Protein Binding % Bound Avg (converted)
Experimental: as §1

[3] = Human Plasma Protein Stability (% Remaining); assay type: in vitro ADME; conditions: average
[4] = Rat Plasma Protein Stability (% Remaining); assay type: in vitro ADME; conditions: average
[5] = molecular target: T1, human recombinant COX2 (hCOX2) (UniProt P35354); experiment: LCMS-based COX2 enzymatic inhibition assay (PGE2 quantification); assay type: biochemical; parameters: COX2 2 minutes pge2/pge2d4 area ratio Avg; other: 2 minutes; readout pge2/pge2d4 area ratio; average; COX2 2 minutes pge2/pge2d4 area ratio Avg; LLE; average LLE; COX2 2 minutes pge2 area (counts) Avg; readout pge2 area (counts); other: 2 min; "ovine COX2 (oCOX2), human recombinant COX2 (hCOX2)"; conditions: for IC50: average; for COX2 2 minutes pge2/pge2d4 area ratio Avg. LLE / COX2 2 minutes pge2 area (counts) Avg. LLE / COX2 10 minutes pge2 area (counts) Avg. LLE: average LLE
T1 sequence (P35354 1-604): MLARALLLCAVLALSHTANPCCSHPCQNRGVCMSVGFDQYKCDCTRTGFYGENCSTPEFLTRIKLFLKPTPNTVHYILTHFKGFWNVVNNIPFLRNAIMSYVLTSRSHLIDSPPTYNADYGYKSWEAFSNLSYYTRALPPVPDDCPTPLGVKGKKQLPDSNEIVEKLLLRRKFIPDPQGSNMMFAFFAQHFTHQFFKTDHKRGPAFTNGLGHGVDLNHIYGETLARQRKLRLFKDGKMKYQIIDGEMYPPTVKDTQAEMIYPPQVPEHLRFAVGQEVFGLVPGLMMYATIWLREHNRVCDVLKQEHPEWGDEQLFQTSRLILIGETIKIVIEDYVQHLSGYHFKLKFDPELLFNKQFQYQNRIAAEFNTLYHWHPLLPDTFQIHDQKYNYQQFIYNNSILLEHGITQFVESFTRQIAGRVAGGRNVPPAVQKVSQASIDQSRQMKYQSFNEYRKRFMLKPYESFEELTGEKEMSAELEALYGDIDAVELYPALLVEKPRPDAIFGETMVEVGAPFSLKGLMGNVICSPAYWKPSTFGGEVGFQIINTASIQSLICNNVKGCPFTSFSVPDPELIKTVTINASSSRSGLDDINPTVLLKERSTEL
Summary of the method: (§2)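 Ovine COX-1 (0.1 μg) or human recombinant COX2 (0.2 μg) in 100 mM Tris.HCl pH 8.0 with hematin and epinephrine, preincubated with inhibitor 10 min at 37 °C. Reaction with 5 μM arachidonic acid stopped after 2 min with HCl; PGE2 quantified by LC-MS-MS. IC50 from 12 concentrations in triplicate.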

[6] = molecular target: T2, ovine COX-1 (oCOX-1) (Ovis aries, UniProt P05979); experiment: LCMS-based COX-1 enzymatic inhibition assay (PGE2 quantification); assay type: biochemical; conditions: 10 minutes
T2 construct: purchased Cayman Chemicals (Ann Arbor, Mich.)
T2 sequence (P05979 25-600): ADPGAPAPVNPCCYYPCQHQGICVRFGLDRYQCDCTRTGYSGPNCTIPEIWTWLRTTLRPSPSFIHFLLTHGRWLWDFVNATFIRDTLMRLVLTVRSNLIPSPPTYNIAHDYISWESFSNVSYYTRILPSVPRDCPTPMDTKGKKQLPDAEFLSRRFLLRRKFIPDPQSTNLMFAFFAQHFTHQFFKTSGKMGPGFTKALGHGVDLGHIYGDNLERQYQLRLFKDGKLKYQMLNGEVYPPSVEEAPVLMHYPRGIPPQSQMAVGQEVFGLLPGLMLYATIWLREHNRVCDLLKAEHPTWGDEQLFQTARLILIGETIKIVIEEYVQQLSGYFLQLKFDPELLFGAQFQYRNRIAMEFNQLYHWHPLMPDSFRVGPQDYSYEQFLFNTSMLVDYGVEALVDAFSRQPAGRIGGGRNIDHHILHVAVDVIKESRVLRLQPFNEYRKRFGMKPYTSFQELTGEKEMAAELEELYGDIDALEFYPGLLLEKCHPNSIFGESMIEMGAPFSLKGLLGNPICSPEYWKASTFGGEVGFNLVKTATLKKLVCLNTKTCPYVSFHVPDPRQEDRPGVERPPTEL
Summary of the method: as §2

[7] = tested on: MDR1; experiment: MDR1-MDCKII permeability and efflux; assay type: in vitro ADME; conditions: dog, MDCK-MDR1
[8] = Human Microsome Stability; assay type: in vitro ADME; conditions: human microsomes
[9] = Mouse Microsome Stability; assay type: in vitro ADME; conditions: mouse microsomes
[10] = PBS Solubility (no DMSO); assay type: physicochemical; conditions: aqueous buffer, thermodynamic from solid, average
[11] = mouse plasma protein binding (PPB) assay; assay type: in vitro ADME; conditions: average, read-out: Mouse Plasma Protein Binding % Bound Avg (converted)
Experimental: as §1

[12] = Mouse Plasma Protein Stability (% Remaining); assay type: in vitro ADME; conditions: average
[13] = Rat Microsome Stability; assay type: in vitro ADME; conditions: rat microsomes
[14] = 2 minutes, readout pge2/pge2d4 area ratio, read-out: COX2 2 minutes pge2/pge2d4 area ratio Avg. IC50
[15] = 2 minutes, readout pge2 area (counts), read-out: COX2 2 minutes pge2 area (counts) Avg. IC50
[16] = pge2/pge2d4 area ratio, head of this section not shown, inferred
[17] = pge2 area (counts), head of this section not shown, inferred
[18] = pge2 area (counts), head of this section not shown, inferred, read-out: COX1 10 minutes pge2 area (counts) Avg. IC50
[19] = readout pge2/pge2d4 area ratio, average, read-out: COX1 10 minutes pge2/pge2d4 area ratio Avg. IC50
[20] = 2 minutes, readout pge2/pge2d4 area ratio
[21] = 2 minutes, readout pge2 area (counts)
[22] = 10 minutes, readout pge2 area (counts)
[23] = 10 minutes, readout pge2 area (counts), read-out: COX2 10 minutes pge2 area (counts) Avg. IC50

Row | SMILES | fraction unbound [1] | fraction unbound [2] | Human Plasma Protein Stability % Remaining Avg [3] [%] | Rat Plasma Protein Stability % Remaining Avg [4] [%] | IC50 [5, 14] [nM] | IC50 [5, 15] [nM] | COX1 10 minutes pge2 area (counts) Avg. LLE [6, 17] | IC50 [6, 19] [nM] | COX2 2 minutes pge2/pge2d4 area ratio Avg. LLE [5, 20] | COX2 2 minutes pge2 area (counts) Avg. LLE [5, 21] | COX2 10 minutes pge2 area (counts) Avg. LLE [5, 22] | IC50 [5, 23] [nM] | Human Microsome Stability % Remaining Avg [8] [%] | Mouse Microsome Stability % Remaining Avg [9] [%] | solubility [10] [µM] | other results
1 | CS(=O)(=O)c1ccc(-c2nc(OCc3cccs3)cc3ccoc23)cc1 [Compound 5] | 0.001 | 0.001 | 102 | 99 | 6.05 | 7.14 |  |  |  |  |  |  |  |  |  | 
2 | CS(=O)(=O)c1ccc(-c2cncc(NCc3ccco3)n2)cc1 [Compound 120] |  |  |  |  | 118 | 124 | 2.724 |  | 5.371 | 5.44 | 6.397 | 11.5 | 32.4 | 1.6 |  | 
3 | CS(=O)(=O)c1ccc(-c2cncc(NCc3ccc(F)cc3)n2)cc1 [Compound 96] |  |  |  |  | 74.2 | 85 | 2.128 | 34200 | 4.85 | 4.897 | 5.83 | 7.94 | 54.9 | 30.5 |  | COX1 10 minutes pge2/pge2d4 area ratio Avg. LLE [6, 16]: 2.186; IC50 [6, 18]: 39000 nM
4 | CS(=O)(=O)c1ccc(-c2nc(NCc3ccoc3)ccc2F)cc1 [Compound 48] | 0.031 | 0.02 | 96 | 128 | 22 | 20.1 |  |  |  |  |  |  | 34 |  | 40 (≈ 13.9 µg/mL) | 
5 | CS(=O)(=O)c1ccc(-c2cccc(OCc3ccsc3)n2)cc1 [Compound 9] | 0.003 | 0.003 | 114 | 121 | 8.03 | 8.91 |  | 48900 | 4.3 | 4.276 |  |  | 35 |  | 3.7 (≈ 1.28 µg/mL) | COX1 10 minutes pge2/pge2d4 area ratio Avg. LLE ([6]; readout pge2/pge2d4 area ratio, average LLE): 0.4674
6 | COc1ncc(NCc2ccco2)nc1-c1ccc(S(C)(=O)=O)cc1 [Compound 43] | 0.028 |  |  | 107.3 | 19.5 | 18.5 |  |  | 5.827 | 5.859 |  |  |  |  | 21 (≈ 7.55 µg/mL) | COX1 10 minutes pge2 area (counts) Avg. LLE ([6]; readout pge2 area (counts), average LLE): 2.44; IC50 ([6]; readout pge2 area (counts), average, read-out: COX1 10 minutes pge2 area (counts) Avg. IC50): 42700 nM; fraction unbound [11]: 0.046; Mouse Plasma Protein Stability % Remaining Avg [12]: 102.6%; Rat Microsome Stability % Remaining Avg [13]: 11.1%

More lines, main results first:

Row | fraction unbound [1] | fraction unbound [2] | Human Plasma Protein Stability % Remaining Avg [3] [%] | Rat Plasma Protein Stability % Remaining Avg [4] [%] | IC50 [5, 14] [nM] | IC50 [5, 15] [nM] | COX1 10 minutes pge2 area (counts) Avg. LLE [6, 17] | IC50 [6, 19] [nM] | COX2 2 minutes pge2/pge2d4 area ratio Avg. LLE [5, 20] | COX2 2 minutes pge2 area (counts) Avg. LLE [5, 21] | COX2 10 minutes pge2 area (counts) Avg. LLE [5, 22] | IC50 [5, 23] [nM] | Human Microsome Stability % Remaining Avg [8] [%] | Mouse Microsome Stability % Remaining Avg [9] [%] | solubility [10] [µM] | SMILES | other results
7 |  |  |  |  | 43.2 | 47.4 | 2.996 | 305 | 3.899 | 3.894 | 5.561 | 0.932 |  |  |  | CS(=O)(=O)c1ccc(-c2cnc3ccn(Cc4cccs4)c3n2)cc1 [Compound 74] | COX1 10 minutes pge2/pge2d4 area ratio Avg. LLE [6, 16]: 3.046; IC50 [6, 18]: 342 nM; efflux ratio [7]: 1; Papp A→B ([7]; A-B, read-out: MDR1-MCKII Papp A-B): 32.2 ×10⁻⁶ cm/s; Papp B→A ([7]; B-A, read-out: MDR1-MCKII Papp B-A): 32 ×10⁻⁶ cm/s
8 |  |  |  |  | 213 | 176 |  |  | 5.497 | 5.579 | 6.4815 | 22.3 | 55 | 10 |  | CS(=O)(=O)c1ccc(-c2cncc(NCc3cccs3)n2)cn1 [Compound 141] | 
